Values of other authors, collected in patent US9034383B2 (NanoRx, Inc., priority 2010, dated 2015).

Tests used:
[1] = system: rats; settings: exercise-trained rats run to exhaustion on a treadmill; Kim et al. 2003
[2] = system: angiogenesis; settings: Thippeswamy 2008

CCCCCCCCCCCCCCCCCCCCCCCCCCCCO [pure octacosanol, octacosanol]
neurologic and pulmonary function (amyotrophic lateral sclerosis patients, double-blind placebo-controlled crossover, Fallat 1986): did not show any benefits | neutral sterol and bile acid concentration in feces (humans, Jahreis 2008): decreases | ergogenic properties [1]: sparing of muscle glycogen stores and increasing the oxidative capacity in the muscle | angiogenesis [2]: inhibits angiogenesis
